Like-named read-outs stand apart in the source and are kept apart here.
What was measured:
[1] = Oral pharmacokinetics of FMN and BCA in rat plasma after CSE or CSE/β-CD inclusion complex; type: in vivo, Sprague–Dawley (SD) rats; settings: rats; for AUC(0-inf) / AUC(0-t) / Cmax / half-life / k el / Tmax: male, Sprague-Dawley, rat; for AUC(0-inf) / AUC(0-t) / Cmax / half-life / k el / Tmax / CL / Vd: plasma, FMN approx. 5 mg/kg, BCA approx. 18 mg/kg; for AUC(0-inf) / AUC(0-t) / Cmax / half-life / k el: po; for k el: read-out: Ke (converted); for time at which concentration in rat plasma reached the peak / relative bioavailability in the inclusion complex relative to the CSE: oral; for time at which concentration in rat plasma reached the peak: given the CSE or the inclusion complex; for relative bioavailability in the inclusion complex relative to the CSE: ratio of the AUC
Protocol: (§1) The specific pathogen-free (SPF) male Sprague–Dawley (SD) rats (average body weight, 220 ± 10 g) aged eight weeks old were purchased from Shanghai Slake Laboratory Animal Co., Ltd. (Shanghai, China). After being raised in an environment-controlled feeding room for 1 week, the SD rats were divided into three groups (groups A, B, and C), with six in each group. They were fasted for 12 h and supplied with unlimited water before the experiments. In group A, 200 mg of the CSE/β-CD inclusion complex (FMN: 1.04 mg, BCA: 3.58 mg) was weighed and prepared into a 3 mL suspension by pure water and then given to each rat by gavage. In group B, a certain amount of CSE with FMN of the same quality as that in the inclusion complex was weighed and prepared into a 3 mL suspension by pure water and then given to each rat by gavage. In group C, a certain amount of CSE, ensuring that the content of BCA was the same as that in the inclusion complex, was weighed and prepared into s 3 mL suspension by pure water and then given to each rat by gavage. The dosage of FMN and BCA in rats was controlled at approximately 5 mg/kg and 18 mg/kg, respectively. Approximately 300 μL rat retro-orbital blood samples were obtained and transferred to heparinized tubes […] at 0.083, 0.25, 0.50, 0.75, 1, 2, 4, 6, 8, 12, and 24 h following intragastric administration. After centrifuging at 3500 rpm for 10 min, the upper plasma was put in clean tubes and placed at −20 °C before use. The rats were killed using the carbon dioxide box after taking blood at the last time point. A batch of new SD rats was raised with the same grouping and administration method for the study of tissue composition. At 0.25 h after intragastric administration, the rats were killed, and the organs including hearts, livers, spleens, lungs, kidneys, and brains were quickly separated, put into centrifuge tubes, and temporarily stored at 4 °C.
To comparatively evaluate the pharmacokinetics of the isoflavones in CSE and the CSE/β-CD inclusion complex, the content of FMN and BCA in rat plasma was determined on a UPLC-MS/MS system equipped with a Waters ACQUITY UPLC and a Xevo TQ-S micro ESI-MS/MS system (Milford, America). An ACQUITY UPLC BEH-C18 (2.1 mm × 100 mm, 1.7 μm) column was applied for the separation work using 0.05% formic acid in water (A) and acetonitrile (B) as the mobile phase with a flow rate of 0.2 mL/min and a column temperature of 30 °C. The gradient elution program was as follows: 0-6 min, A 50%. The selected multiple reaction monitoring (MRM) modes in the negative ESI mode of the mass spectrometer were used for all the analytes, and the capillary voltage was set at 2.66 kV with a source temperature of 150 °C using nitrogen as the desolvation gas and cone gas. The CHL was used as an internal standard (IS).
All plasma samples were stored at −20 °C and thawed at room temperature. To precipitate the protein, a 100 μL plasma sample was precisely aspirated, adding 40 μL of the IS solutions and 260 μL of acetonitrile, and vortexing for 3 min. Then the mixture was centrifuged at 13,000 rpm for 10 min and the 5 μL supernatant was injected for = UPLC-MS/MS analysis.
Compared with the rats fed the CSE, the rats fed the inclusion complex had higher Cmax, longer elimination half-lives (t1/2), larger areas under the concentration–time curve (AUC), and lower apparent volumes of distribution (Vd) and plasma clearance (CL). […] This caused the content of FMN and BCA in rats to be higher and have a longer retention time. The relative bioavailability of the two isoflavones in the inclusion complex relative to the CSE was calculated using the ratio of the AUC. […] It is reported that β-CD and its derivatives can inhibit the activity of P-glycoprotein, which is closely related to the bioavailability of oral drugs. The decrease in P-glycoprotein activity can reduce the excretion of drugs from cells.

[2] = Tissue distribution of FMN and BCA in rats after oral CSE or inclusion complex; type: in vivo, Sprague–Dawley (SD) rats; settings: 0.25 h after intragastric administration; for distribution characteristics of the contents in rat tissues: CSE or inclusion complex
Protocol: as §1
The contents of FMN and BCA in the tissues of rats were also determined by the above-established UPLC-MS/MS method.
The tissue was washed with normal saline to remove the residual blood, the water on the surface of the tissue was dried, and the tissue was weighed, cut into small pieces, and put into a centrifuge tube. Then, it was added to normal saline of the same amount as the tissue and ground into a homogenate. Then, 300 μL of the tissue homogenate was placed into a centrifuge tube, adding 60 μL of IS and 840 μL of acetonitrile to precipitate the protein. After centrifuging at 13,000 rpm for 10 min, the supernatant was collected and centrifuged again. Finally, the obtained supernatant was taken for subsequent analysis.

[3] = In vitro release in simulated gastric and intestinal fluid; type: physicochemical; settings: artificial gastric juice and artificial intestinal juice, 37 °C, 100 rpm, up to 24 h
Protocol: According to the determination method of dissolution and release in Chinese Pharmacopoeia 2020, the in vitro sustained release of the isoflavones in the CSE/β-CD inclusion complex and CSE was determined on a SOTAX AT. 7× dissolution tester (Stetten, Switzerland) with a stirring rate of 100 rpm at 37 °C [16] using FMN and BCA as the evaluation index. Simulated gastric fluid (SGF) and simulated intestinal fluid (SIF) were used as release media. The preparation method of SGF was to mix 16.4 mL of the HCl solution (9.5–10.5% by volume) and 10 g of pepsin into 800 mL water, and finally adjust the volume to 1000 mL of water. The preparation of SIF was to add 6.8 g of potassium dihydrogen phosphate to 500 mL of water (use 0.1 M NaOH to adjust the pH to 6.8), then add 10 g of trypsin, and finally adjust the volume to 1000 mL of water. The CSE/β-CD inclusion complex (400.00 mg, containing 2.08 mg FMN and 7.16 mg BCA), CSE (94.12 mg, containing 2.08 mg FMN), and CSE (205.16 mg, containing 7.16 mg BCA) were weighed and added to 900 mL of release media, respectively. […] The sample was added to 3 times the volume of acetonitrile to remove the protein, then centrifuged at 10000 rpm for 10 min, and the obtained supernatant was analyzed by HPLC. […]

[4] = Inclusion ratio and drug loading of the CSE/β-CD inclusion complex; type: physicochemical; settings: for inclusion ratio: CSE with β-CD, optimal conditions: β-CD/CSE 4:1, 40 °C, 400 rpm, 2 h; for drug loading in the CSE/β-CD inclusion complex: optimal conditions
Protocol: A saturated aqueous solution method was used to prepare the inclusion complexes. β-CD (456 mg) was dispersed into 20 mL of water and heated with a water bath. CSE was accurately weighed according to the mass ratio of β-CD/CSE at 7:1 (g/g) to 3:1 (g/g) and dissolved in a small amount of ethanol to obtain CSE ethanol suspension, which was slowly dripped into the β-CD aqueous solution under 30 to 70 °C and at a stirring speed of 200 rpm to 1000 rpm. The mixed solution was stirred for 0.5 h to 4 h. After cooling to room temperature, the mixture was placed at 4 °C for 24 h, and then filtered quickly. The filter residue was moistened with a small amount of ethanol and dried to obtain the β-CD/CSE inclusion complex. The amounts of BCA and FMN in the initial CSE (Mc) and filtrate (Mf) were determined under the same conditions as above using an Agilent 1260 Infinity II HPLC. The inclusion ratio of FMN and BCA was used as an evaluation index to optimize the preparation methods. The calculation formula of the inclusion ratio (R%) was as follows:(1) R%=1−Mf/Mc×100% where Mf is the mass of the remaining isoflavones in the filtrate and Mc is the mass of the isoflavones in the CSE initially added.

[5] = oral gavage of CSE/β-CD inclusion complex

| AUC(0-inf) [1, 5] | AUC(0-t) [1, 5] | Cmax [1, 5] | half-life [1, 5] | k el [1, 5] | AUC(0-inf) ([1]; oral gavage of CSE) | AUC(0-t) ([1]; oral gavage of CSE) | Cmax ([1]; oral gavage of CSE) | half-life ([1]; oral gavage of CSE) | k el ([1]; oral gavage of CSE) | Tmax ([1]; oral gavage of CSE) | CL [1, 5] | Vd [1, 5] | CL ([1]; oral gavage of CSE) | Vd ([1]; oral gavage of CSE) | time at which concentration in rat plasma reached the peak [1] | relative bioavailability in the inclusion complex relative to the CSE [1] | content in the tissues, inclusion complex compared with CSE [2] | solubility and dissolution properties by forming the CSE/β-CD inclusion complex, compared with CSE [3] | SMILES | distribution characteristics of the contents in rat tissues [2] | further results |
| --- | --- | --- | --- | --- | --- | --- | --- | --- | --- | --- | --- | --- | --- | --- | --- | --- | --- | --- | --- | --- | --- |
| 173 ± 56.3 ng·h/mL | 102 ± 45.3 ng·h/mL | 22.4 ± 2.45 ng/mL | 7.33 ± 3.07 h | 3.06e-05 s⁻¹ | 61.9 ± 15.5 ng·h/mL | 37.6 ± 17.7 ng·h/mL | 13.9 ± 3.17 ng/mL | 4.63 ± 0.88 h | 4.17e-05 s⁻¹ | 0.25 h | 93.83 ± 29.01 L/h | 896.37 ± 113.90 L | 252.24 ± 52.73 L/h | 1635.82 ± 92.84 L | 15 min | 270.7% | significantly higher | significantly improved | COc1ccc(-c2coc3cc(O)cc(O)c3c2=O)cc1 [BCA, biochanin A] | liver > kidneys > lungs > spleen > heart > brain | inclusion ratio [4]: 81.79%; drug loading in the CSE/β-CD inclusion complex [4]: 17.9 mg/g |
| 72 ± 25.7 ng·h/mL | 51.5 ± 12.3 ng·h/mL | 21 ± 2.81 ng/mL | 4.51 ± 2.07 h | 5.56e-05 s⁻¹ | 37 ± 12.9 ng·h/mL | 30 ± 15.2 ng·h/mL | 14.4 ± 1.46 ng/mL | 3.84 ± 2.1 h | 6.39e-05 s⁻¹ | 0.25 h | 75.79 ± 23.47 L/h | 441.60 ± 140.88 L | 148.14 ± 47.18 L/h | 722.51 ± 197.97 L | 15 min | 171.6% | significantly higher | significantly improved | COc1ccc(-c2coc3cc(O)ccc3c2=O)cc1 [FMN, formononetin] | liver > kidneys > lungs > spleen > heart > brain | inclusion ratio [4]: 53.31%; drug loading in the CSE/β-CD inclusion complex [4]: 5.2 mg/g |
